Measured values reported in patent US20250270222A1, “AP2 ASSOCIATED KINASE 1 INHIBITORS AND USES THEREOF” (Satellos Bioscience Inc., priority 2023, published 2025).

Key:
[1] = target: AAK1 (amino acids T27-A365) (Homo sapiens (Human), UniProt Q2M2I8); experiment: AAK1 pSENs assay; format: biochemical; details: for AAK1:GAK pSENs Selectivity: ratio of AAK1 pSENs activity to GAK pSENs activity; for IC50: read-out: AAK1 pSENs:EIC50
How it was run: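 Untagged, biotinylated E. coli-expressed AAK1 at 20 nM preincubated with compound 15 min at 25° C in HEPES pH 7.5 buffer with 10 mM MgCl2 and 1 mM DTT. Reaction started with AQT0759 and ATP, added as 30 uM and 70 uM solutions in equal volume.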

[2] = target: BIKE (amino acids S38-E345) (K320A, K321A) (Homo sapiens (Human), UniProt Q9NSY1, K320A/K321A); experiment: BIKE pSENs assay; format: biochemical
Chain of BIKE (amino acids S38-E345) (K320A, K321A) (Q9NSY1 38-345 K320A/K321A): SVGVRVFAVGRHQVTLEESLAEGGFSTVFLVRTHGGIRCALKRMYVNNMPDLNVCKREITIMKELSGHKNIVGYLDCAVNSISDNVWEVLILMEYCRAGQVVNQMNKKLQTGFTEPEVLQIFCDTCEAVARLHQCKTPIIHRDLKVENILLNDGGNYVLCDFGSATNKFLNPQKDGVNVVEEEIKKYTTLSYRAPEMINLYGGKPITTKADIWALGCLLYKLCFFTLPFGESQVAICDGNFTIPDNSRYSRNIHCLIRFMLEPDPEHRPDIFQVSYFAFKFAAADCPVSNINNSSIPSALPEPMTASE
Procedure: The recombinant proteins were independently expressed in Esherichia coli BL21(DE3) cells cultured in Luria-Bertani (LB) medium until OD600 reached 0.6-0.8, then cooled to 15° C., and supplemented with 0.5 mM isopropyl 1-thio-D-galactopyranoside (IPTG) induce protein expression 16 h. Cells were harvested and resuspended in lysis buffer (50 mM HEPES pH 7.5, 500 mM NaCl, 5 mM imidazole, 5% glycerol, 0.5 mM Tris (2-carboxyethyl) phosphine (TCEP), cOmplete Protease Inhibitor Tablet (Roche)) and lysed by microfluidics high pressure homogenizer (UH-06, Union-Biotech). Proteins were purified using Ni-Affinity chromatography (His FF column, Bestchrom) and eluted stepwise in binding buffer with 20-300 mM imidazole. Removal of the hexahistidine tag was performed at 4° C. overnight using recombinant TEV protease and reacted with BirA to obtain the corresponding biotinylated-AAK1. BIKE or GAK proteins. Further separated in the reverse Strep column (Strep-Tactin® XT, IBA). The Biotin elution sample was collected containing untagged biotinylated protein was then purified by Ion-exchange chromatography (Mono Q 10/100 GL, Cytiva) and Size-exclusion chromatography (HiLoad 16/600 Superdex 200 pg, Cytiva). The pure protein was stored in a storage buffer 50 mM HEPES (pH 7.5), 300 mM NaCl, 5% glycerol at −80° C. Protein were characterized by SDS-PAGE. LC-MS and aSEC.
BIKE protein was dissolved at 20 nM in 1× enzyme solution (50 mM HEPES pH7.5, 10 mM MgCl2, 1 mM DTT, 1% glycerol, 0.5 mM EGTA, 0.01% Briji35, 0.02% BSA) and 12.5 ul was incubated with 250 nl DMSO or 250 nl compound in DMSO at 25° C. for 15 min. The reaction was started by addition of 12.5 ul of 30 uM AQT0759 (Assayquant, CSKS-AQT0759B) and 40 uM ATP which were diluted in 1× substrate dilution buffer (50 mM HEPES pH7.5, 10 mM MgCl2. 1 mM DTT, 1% glycerol, 0.5 mM EGTA, 0.01% Briji35).

[3] = target: GAK (amino acids Q25-N335) (Homo sapiens (Human), UniProt O14976); experiment: GAK pSENs assay; format: biochemical
Chain of GAK (amino acids Q25-N335) (O14976 25-335): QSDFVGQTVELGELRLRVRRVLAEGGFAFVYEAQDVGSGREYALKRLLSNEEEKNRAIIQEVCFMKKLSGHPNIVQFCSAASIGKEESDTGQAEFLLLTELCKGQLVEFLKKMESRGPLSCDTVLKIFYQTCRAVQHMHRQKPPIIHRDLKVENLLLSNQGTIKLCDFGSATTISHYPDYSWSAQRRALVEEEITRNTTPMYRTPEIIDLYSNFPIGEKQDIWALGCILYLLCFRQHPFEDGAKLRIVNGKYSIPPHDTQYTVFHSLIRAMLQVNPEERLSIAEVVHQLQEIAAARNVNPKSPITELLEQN

[4] = target: AAK1 (Homo sapiens (Human), UniProt Q2M2I8); experiment: pAP2M1 cell-based assay (In-Cell Western); details: Hela cells co-transfected with AP2M1 and AAK1, 3 hr treatment, Phospho-AP2M1 (Thr156)
Chain of AAK1 (Q2M2I8 whole entry): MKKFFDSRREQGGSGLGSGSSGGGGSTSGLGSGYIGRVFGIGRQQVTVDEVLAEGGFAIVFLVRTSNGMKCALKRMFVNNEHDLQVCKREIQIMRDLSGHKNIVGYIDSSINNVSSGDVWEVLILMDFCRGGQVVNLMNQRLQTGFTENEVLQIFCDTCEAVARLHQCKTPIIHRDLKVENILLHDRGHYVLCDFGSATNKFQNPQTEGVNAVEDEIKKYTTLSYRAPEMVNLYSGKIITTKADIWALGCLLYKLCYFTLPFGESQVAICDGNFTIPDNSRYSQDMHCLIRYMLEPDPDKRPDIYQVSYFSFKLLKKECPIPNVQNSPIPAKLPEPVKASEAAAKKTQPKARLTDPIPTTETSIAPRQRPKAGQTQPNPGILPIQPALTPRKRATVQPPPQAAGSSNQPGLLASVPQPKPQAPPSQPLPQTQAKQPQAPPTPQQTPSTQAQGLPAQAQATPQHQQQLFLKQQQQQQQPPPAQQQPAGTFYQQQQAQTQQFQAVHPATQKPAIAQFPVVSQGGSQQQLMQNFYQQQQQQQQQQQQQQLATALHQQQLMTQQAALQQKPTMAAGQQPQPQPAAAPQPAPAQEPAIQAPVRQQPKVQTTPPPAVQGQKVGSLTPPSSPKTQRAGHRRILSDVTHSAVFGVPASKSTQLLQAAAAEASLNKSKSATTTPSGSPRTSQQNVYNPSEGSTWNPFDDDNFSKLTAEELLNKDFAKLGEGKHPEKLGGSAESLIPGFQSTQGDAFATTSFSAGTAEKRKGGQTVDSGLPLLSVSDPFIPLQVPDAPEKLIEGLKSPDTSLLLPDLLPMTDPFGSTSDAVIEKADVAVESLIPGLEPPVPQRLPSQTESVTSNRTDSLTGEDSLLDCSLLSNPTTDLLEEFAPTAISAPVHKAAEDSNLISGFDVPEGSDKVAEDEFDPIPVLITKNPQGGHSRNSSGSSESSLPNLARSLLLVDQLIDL
Excerpt: pAP2M1 Cell-Based Assay (In-Cell Western):
The plate was read on Licor Odyssey CLx imaging system (LICOR) to acquire fluorescence intensity at 700 channel and 800 channel.
Data analysis: Fluorescence intensity at 700 channel served as internal standard and 800 channel were normalized with 700 channel.

Chain of AAK1 (amino acids T27-A365) (Q2M2I8 27-365): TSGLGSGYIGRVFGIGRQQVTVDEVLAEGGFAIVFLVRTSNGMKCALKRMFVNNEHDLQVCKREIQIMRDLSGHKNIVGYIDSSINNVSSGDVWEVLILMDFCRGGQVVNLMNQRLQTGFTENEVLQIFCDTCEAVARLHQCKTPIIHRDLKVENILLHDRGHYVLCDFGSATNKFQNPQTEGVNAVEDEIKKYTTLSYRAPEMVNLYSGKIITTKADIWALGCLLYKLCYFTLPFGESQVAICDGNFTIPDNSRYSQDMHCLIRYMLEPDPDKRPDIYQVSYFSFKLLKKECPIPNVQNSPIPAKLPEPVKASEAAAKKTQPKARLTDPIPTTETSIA

| SMILES | AAK1:GAK pSENs Selectivity [1] | IC50 [2] [nM] | IC50 [3] [nM] | IC50 [1] [nM] | IC50 [4] [nM] |
| --- | --- | --- | --- | --- | --- |
| CC1(OC(=O)N2CCN(c3ccn4ncc(-c5cccnc5OC5CCC5)c4n3)CC2)COC1 [Compound I-17, (3-Methyloxetan-3-yl) 4-[3-[2-(cyclobutoxy)-3-pyridyl]pyrazolo[1,5-a]pyrimidin-5-yl]piperazine-1-carboxylate] | B (B: 0.016-0.075) | > 1500 | > 1500 |  |  |
| O=C1NCC[C@H]1OC(=O)N1CCN(c2ccn3ncc(-c4cccnc4OC4CC4)c3n2)CC1 [Compound I-23, [(3R)-2-oxopyrrolidin-3-yl]-4-[3-[2-(cyclopropoxy)-3-pyridyl]pyrazolo[1,5-a]pyrimidin-5-yl]piperazine-1-carboxylate] | B (B: 0.016-0.075) | > 1500 | > 1500 |  |  |
| COC(=O)N1CC(Oc2ncccc2-c2cnn3ccc(N4CCN(C(=O)O[C@@H]5CC(=O)N(CCOCc6ccccc6)C5)CC4)nc23)C1 [Compound I-84-6, [(3R)-1-(2-benzyloxyethyl)-5-oxo-pyrrolidin-3-yl]-4-[3-[2-(1-methoxycarbonyl-azetidin-3-yl)oxy-3-pyridyl]pyrazolo[1,5-a]pyrimidin-5-yl]piperazine-1-carboxylate] | B (B: 0.016-0.075) | > 1500 | > 1500 |  |  |
| C[C@]1(OC(=O)N2CCN(c3ccn4ncc(-c5cccnc5OC5CC5)c4n3)CC2)CCNC1 (single isomer, unassigned) [Compound I-13] | B (B: 0.016-0.075) | 1 to 50 | 51 to 150 | 1 to 50 | 1 to 50 |
| O=C1C[C@H](OC(=O)N2CCN(c3ccn4ncc(-c5cccnc5OC5CC5)c4n3)C[C@H]2C(=O)O)CN1 [Compound I-41-4C, (S)-4-(3-(2-Cyclopropoxypyridin-3-yl)pyrazolo[1,5-a]pyrimidin-5-yl)-1-((((S)-5-oxopyrrolidin-3-yl)oxy)carbonyl)piperazine-2-carboxylic acid] | D (D: 0.16-1.00) | > 1500 | > 1500 |  |  |
| O=C(O[C@H]1CO[C@H]2OCC[C@H]21)N1CCN(c2ccn3ncc(-c4ccccc4OC4CC4)c3n2)CC1 [Compound I-68, [(3aS,4R,6aR)-2,3,3a, 4,5,6a-hexahydrofuro[2,3-b]furan-4-yl]4-[3-[2-(cyclopropoxy)phenyl]pyrazolo[1,5-a]pyrimidin-5-yl]piperazine-1-carboxylate] | A (A: ≤0.015) | > 1500 | > 1500 |  |  |
| Cc1cn2ncc(-c3cccnc3OC3CC3)c2nc1N1CCN(C(=O)O[C@H]2CC(=O)N(C)C2)CC1 [Compound I-111, [(3S)-1-methyl-5-oxo-pyrrolidin-3-yl]-4-[3-[2-(cyclopropoxy)-3-pyridyl]-6-methyl-pyrazolo[1,5-a]pyrimidin-5-yl]piperazine-1-carboxylate] | C (C: 0.076-0.15) | > 1500 | > 1500 |  |  |
| CN(C)CCN1CC[C@@](C)(OC(=O)N2CCN(c3ccn4ncc(-c5cccnc5OC5CC5)c4n3)CC2)C1 [Compound I-53, (R)-1-(2-(dimethylamino)ethyl)-3-(methylpyrrolidin-3-yl)-4-(3-(2-cyclopropoxypyridin-3-yl)pyrazolo[1,5-a]pyrimidin-5-yl)piperazine-1-carboxylate] | A (A: ≤0.015) | 501 to 1500 | > 1500 |  |  |
| COC(=O)[C@@H]1CN(c2ccn3ncc(-c4cccnc4OC4CC4)c3n2)CCN1C(=O)O[C@@H]1CNC(=O)C1 [Compound I-41-5, 2-Methyl 1-((S)-5-oxopyrrolidin-3-yl) (S)-4-(3-(2-cyclopropoxypyridin-3-yl)pyrazolo[1,5-a]pyrimidin-5-yl)piperazine-1,2-dicarboxylate] | C (C: 0.076-0.15) | > 1500 | > 1500 |  |  |
| O=C1C[C@H](OC(=O)N[C@H]2CCN(c3ccn4ncc(-c5cccnc5OC5CC5)c4n3)C2)CN1 [Compound I-55, (S)-5-oxopyrrolidin-3-yl ((S)-1-(3-(2-cyclopropoxypyridin-3-yl)pyrazolo[1,5-a]pyrimidin-5-yl)pyrrolidin-3-yl)carbamate] | D (D: 0.16-1.00) | > 1500 | > 1500 |  |  |
| C[C@H]1CN(c2ccn3ncc(-c4cccnc4OC4CC4)c3n2)CCN1C(=O)O[C@@H]1CNC(=O)C1 [Compound I-40, [(3S)-5-Oxopyrrolidin-3-yl](2S)-4-[3-[2-(cyclopropoxy)-3-pyridyl]pyrazolo[1,5-a]pyrimidin-5-yl]-2-methyl-piperazine-1-carboxylate] | B (B: 0.016-0.075) | > 1500 | > 1500 |  |  |
| CC(C)(C)OC(=O)N1CC(Nc2ncccc2-c2cnn3ccc(N4CCN(C(=O)O[C@@H]5CNC(=O)C5)CC4)nc23)C1 [Compound I-48] | D (D: 0.16-1.00) | > 1500 | > 1500 |  |  |
| O=C1C[C@H](OC(=O)N2CCN(c3ccn4ncc(-c5cccnc5OC5CNC5)c4n3)CC2)CN1 [Compound I-43, [(3S)-5-Oxopyrrolidin-3-yl]4-[3-[2-(azetidin-3-yloxy)-3-pyridyl]pyrazolo[1,5-a]pyrimidin-5-yl]piperazine-1-carboxylate] | D (D: 0.16-1.00) | > 1500 | > 1500 | > 1500 | > 1500 |
| CN1C[C@@H](OC(=O)N2CCN(c3nc4c(-c5cccnc5OC5CC5)cnn4cc3O)CC2)CC1=O [Compound I-110, [(3S)-1-methyl-5-oxo-pyrrolidin-3-yl]-4-[3-[2-(cyclopropoxy)-3-pyridyl]-6-hydroxy-pyrazolo[1,5-a]pyrimidin-5-yl]piperazine-1-carboxylate] | E (E: >1.00) | > 1500 | > 1500 |  |  |
| CN1CC(Oc2ncccc2-c2cnn3ccc(N4CCN(C(=O)O[C@@H]5CNC(=O)C5)CC4)nc23)C1 [Compound I-44, (S)-5-Oxopyrrolidin-3-yl 4-(3-(2-((1-methylazetidin-3-yl)oxy)pyridin-3-yl)pyrazolo[1,5-a]pyrimidin-5-yl)piperazine-1-carboxylate] | D (D: 0.16-1.00) | > 1500 | > 1500 |  |  |
| CC1(OC(=O)N2CCN(c3ccn4ncc(-c5cccnc5OCC5CCC5)c4n3)CC2)COC1 [Compound I-19, 3-Methyloxetan-3-yl 4-(3-(2-(cyclobutylmethoxy)pyridin-3-yl)pyrazolo[1,5-a]pyrimidin-5-yl)piperazine-1-carboxylate] | D (D: 0.16-1.00) | > 1500 | > 1500 |  |  |
| O=C(O[C@@H]1CC(=O)N(C2CCNCC2)C1)N1CCN(c2ccn3ncc(-c4cccnc4OC4CC4)c3n2)CC1 [Compound I-33, (R)-5-Oxo-1-(piperidin-4-yl)pyrrolidin-3-yl 4-(3-(2-cyclopropoxypyridin-3-yl)pyrazolo[1,5-a]pyrimidin-5-yl)piperazine-1-carboxylate] | D (D: 0.16-1.00) | > 1500 | > 1500 |  |  |
| Cc1nn2ccc(N3CCN(C(=O)O[C@H]4CC(=O)N(C)C4)CC3)nc2c1-c1cccnc1OC1CC1 [Compound I-108, [(3S)-1-methyl-5-oxo-pyrrolidin-3-yl]-4-[3-[2-(cyclopropoxy)-3-pyridyl]-2-methyl-pyrazolo[1,5-a]pyrimidin-5-yl]piperazine-1-carboxylate] | E (E: >1.00) | > 1500 | > 1500 |  |  |
